From patent US20230056205A1, “SUBSTITUTED 4,6-DIHYDROSPIRO[[1,2,3]TRIAZOLO[4,5-B]PYRIDINE-7,3'-INDOLINE]-2',5(3H)-DIONE ANALOGUES” (The Board of Regents of The University of Texas System, priority 2019, published 2023)

Key:
DENV-1 replicon = assay: Luciferase reporter replicon-based screening, DENV-1; format: cell-based, DENV-1 (strain WestPac); settings: Dengue virus, DENV1, Huh-7, 48 h, read-out: EC50 DENV-1
How it was run: (§1)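 Huh7 cells carrying Renilla luciferase/neo replicons of DENV-1 (WestPac), DENV-2 (NGC), DENV-3 (D3MY05-34640) or DENV-4 (D4MY01-22713), treated with 2-fold compound dilutions for 48 h at 37 °C in duplicate. Live-cell luciferase read; EC50 by four-parameter logistic fit.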

DENV-2 replicon = assay: Luciferase reporter replicon-based screening, DENV-2; format: cell-based, DENV-2 (New Guinea C strain, NGC); settings: Dengue virus, DENV2, Huh-7, 48 h, read-out: EC50 DENV-2, Huh7 cells stably expressing DENV-2 replicon, 48 h
How it was run: as §1

DENV-3 replicon = assay: Luciferase reporter replicon-based screening, DENV-3; format: cell-based, DENV-3 (strain D3MY05-34640); settings: Dengue virus, DENV3, Huh-7, 48 h, read-out: EC50 DENV-3, Huh7 cells stably expressing DENV-3 replicon, 48 h
How it was run: as §1

DENV-4 replicon = assay: Luciferase reporter replicon-based screening, DENV-4; format: cell-based, DENV-4 (strain D4MY01-22713); settings: Dengue virus, DENV4, Huh-7, 48 h, read-out: EC50 DENV-4
How it was run: as §1

[1] = Cytotoxicity assay (CellTiter-Glo); format: cell-based; settings: human, Huh7 cells stably expressing DENV-2 replicon
How it was run: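 Huh7 or Huh7 replicon cells, seeded overnight at 37 °C, exposed to 2-fold serial dilutions of compound for 48 h in duplicate. Viability by CellTiter-Glo, normalised to 0.45% DMSO wells (100%); CC50 by four-parameter logistic regression.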

DENV-2 strain NGC = assay: Viral titer reduction assay, DENV-2 strain NGC; format: cell-based; settings: Dengue virus, DENV2, Huh-7; viral titer reduction assay on Huh7 cells
Protocol: Viral Titer Reduction Assay. Huh7 cells were seeded in a 96-well plate. The next day, cells were infected with DENV-2 strains NGC or D2Y98P at a MOI of 0.3 in the presence of 2-fold serial dilutions of compounds. Experiments were performed in triplicates. After incubation at 37° C. for 48 h, cell culture fluids were harvested. The infectious viruses in the culture fluids were determined by plaque assay using a protocol as described previously.^48 The EC50 values were calculated using four parameter logistic regression in GraphPad software Prism 8.0.

[2] = system: P12 resistant DENV-2 viruses (NS4B V63M or V63L); format: cell-based, DENV-2 strain NGC
in vivo = format: in vivo, male SD rats
Protocol: In Vivo PK Studies. The PK profiles of compound 15 were determined in male SD rats following intravenous (i.v.) and oral (p.o.) administration of 10 and 20 mg/kg, respectively. The formulations used for i.v. and p.o. were solution in DMSO: 20% HP-β-CD in saline = 1:9. IV bolus injection, animal number N = 3; dose level: 10 mg/kg; sample collection time points: 5 min, 15 min, 30 min, 1 h, 2 h, 4 h, 8 h, 24 h; PO: animal number N = 3; fasting 12 h, dose level: 20 mg/kg; sample collection time points: 15 min, 30 min, 1 h, 2 h, 4 h, 8 h, 24 h. Plasma concentrations of compound 15 were measured by API-4000/5500 LC-MS/MS with 8 point standard curve and 6 QCs. Pharmacokinetic parameters were calculated by a non-compartmental approach using WinNonLin software.

SMILES: CC(C)CCN1C(=O)[C@]2(CC(=O)Nc3c2nnn3[C@@H](C)c2ccc(Cl)cc2)c2cc(Cl)ccc21 [Compound 15, (R)-5'-Chloro-3-((S)-1-(4-chlorophenyl)ethyl)-1'-isopentyl-4,6-dihydrospiro[[1,2,3]triazolo[4,5-b]pyridine-7,3'-indoline]-2ʹ,5(3H)-dione]
- EC50 (DENV-1 replicon): 780 nM
- EC50 (DENV-2 replicon): 160 nM
- EC50 (DENV-3 replicon): 35 nM
- EC50 (DENV-4 replicon): > 5000 nM
- CC50 at 48 h [1]: > 10000 nM
- EC50 (DENV-2 strain NGC): ~100 nM
- increase of viral resistance by mutation NS4B V63L ([2]; P12-VI virus, Huh7 cells): 16 folds
- EC50 ([2]; viral reduction assay on Huh7 cells, read-out: EC50 against resistant viruses P12-VI): 2000 nM
- AUC0- ∞ (in vivo; iv 10 mg/kg, rat plasma): 10,334 ng·h/mL
- CL (in vivo; iv 10 mg/kg, rat plasma): 13.7 mL/min/kg
- Cmax (in vivo; iv 10 mg/kg, rat plasma): 10,334 ng/mL
- MRT (in vivo; iv 10 mg/kg, rat plasma): 2.28 h
- Vss (in vivo; iv 10 mg/kg, rat plasma): 2.67 L/kg
- t½ (in vivo; iv 10 mg/kg, rat plasma): 2.29 h
- Tmax (in vivo; male, SD, in vivo, po 20 mg/kg, rat plasma): 1 h
- bioavailability (in vivo; male, SD, rat, in vivo, po 20 mg/kg vs iv 10 mg/kg, rats, read-out: F (absolute oral bioavailability)): 30%
- AUC0- ∞ (in vivo; po 20 mg/kg, rat plasma): 6,240 ng·h/mL
- CL (in vivo; po 20 mg/kg, rat plasma): 59.5 mL/min/kg
- Cmax (in vivo; po 20 mg/kg, rat plasma): 1,517 ng/mL
- MRT (in vivo; po 20 mg/kg, rat plasma): 3.46 h
- Vss (in vivo; po 20 mg/kg, rat plasma): 11.54 L/kg
- t½ (in vivo; po 20 mg/kg, rat plasma): 2.24 h
